Assays:
TEM-1 = biological target: T1, TEM-1 (Escherichia coli, UniProt P62593); experiment: β-lactamase inhibitory activity, determination of IC50 (nitrocefin hydrolysis); format: biochemical
T1 construct: made in house; host or cells: E. coli

SHV-1 = biological target: T2, SHV-1 (Klebsiella pneumoniae, UniProt P0AD64); experiment: as above; format: biochemical
T2 construct: made in house; host or cells: E. coli

CTX-M-15 = biological target: T3, CTX-M-15 (Escherichia coli, UniProt Q9EXV5); experiment: as above; format: biochemical; conditions: class (A); nitrocefin 200 μM, 30 min pre-incubation; read-out: IC50 β-lactamase CTX-M-15
T3 construct: made in house; host or cells: E. coli
T3 sequence (Q9EXV5 entry or part of it): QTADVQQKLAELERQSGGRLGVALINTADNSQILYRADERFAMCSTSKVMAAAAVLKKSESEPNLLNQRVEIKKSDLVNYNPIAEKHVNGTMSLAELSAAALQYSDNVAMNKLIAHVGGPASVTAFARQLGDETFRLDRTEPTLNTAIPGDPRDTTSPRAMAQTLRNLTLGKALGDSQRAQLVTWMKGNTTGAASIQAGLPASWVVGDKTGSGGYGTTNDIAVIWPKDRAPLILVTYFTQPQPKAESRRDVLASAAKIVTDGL

KPC-2 = biological target: T4, KPC-2 (Klebsiella pneumoniae, UniProt Q9F663); experiment: as above; format: biochemical; conditions: class (A); nitrocefin 200 μM, 30 min pre-incubation; read-out: IC50 β-lactamase KPC-2
T4 construct: made in house; host or cells: E. coli
T4 sequence (Q9F663 25-293 limits assumed): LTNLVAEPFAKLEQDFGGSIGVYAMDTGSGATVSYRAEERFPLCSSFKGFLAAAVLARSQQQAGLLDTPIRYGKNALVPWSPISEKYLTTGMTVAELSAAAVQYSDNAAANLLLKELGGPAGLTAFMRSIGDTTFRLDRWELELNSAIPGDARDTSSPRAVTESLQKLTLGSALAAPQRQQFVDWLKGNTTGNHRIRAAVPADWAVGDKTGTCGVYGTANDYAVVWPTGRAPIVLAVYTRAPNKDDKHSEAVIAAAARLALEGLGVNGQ

OXA-1 = biological target: T5, OXA-1 (Escherichia coli, UniProt P13661); experiment: as above; format: biochemical; conditions: class (D); nitrocefin 200 μM, 30 min pre-incubation; read-out: IC50 β-lactamase OXA-1
T5 construct: made in house; host or cells: E. coli
T5 sequence (P13661 26-276): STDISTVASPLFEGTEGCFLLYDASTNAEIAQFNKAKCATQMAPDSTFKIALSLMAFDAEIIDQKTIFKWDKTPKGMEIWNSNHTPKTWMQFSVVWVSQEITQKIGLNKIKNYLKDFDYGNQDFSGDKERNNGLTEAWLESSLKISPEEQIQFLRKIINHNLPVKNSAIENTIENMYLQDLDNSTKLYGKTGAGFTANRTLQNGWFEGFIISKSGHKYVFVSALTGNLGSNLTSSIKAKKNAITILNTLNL

OXA-11 = biological target: T6, OXA-11 (Pseudomonas aeruginosa, UniProt Q06778); experiment: as above; format: biochemical
T6 construct: made in house; host or cells: E. coli
T6 sequence (Q06778 21-266): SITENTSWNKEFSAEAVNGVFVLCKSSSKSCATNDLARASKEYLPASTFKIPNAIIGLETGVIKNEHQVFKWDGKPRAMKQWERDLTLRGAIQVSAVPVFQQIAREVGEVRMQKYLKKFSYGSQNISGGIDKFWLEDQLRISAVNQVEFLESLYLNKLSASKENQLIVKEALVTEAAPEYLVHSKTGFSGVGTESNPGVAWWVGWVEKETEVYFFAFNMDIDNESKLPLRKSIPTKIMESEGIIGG

OXA-15 = biological target: T7, OXA-15 (Pseudomonas aeruginosa, UniProt Q51574); experiment: biochemical
T7 construct: made in house; host or cells: E. coli
T7 sequence (Q51574 22-275): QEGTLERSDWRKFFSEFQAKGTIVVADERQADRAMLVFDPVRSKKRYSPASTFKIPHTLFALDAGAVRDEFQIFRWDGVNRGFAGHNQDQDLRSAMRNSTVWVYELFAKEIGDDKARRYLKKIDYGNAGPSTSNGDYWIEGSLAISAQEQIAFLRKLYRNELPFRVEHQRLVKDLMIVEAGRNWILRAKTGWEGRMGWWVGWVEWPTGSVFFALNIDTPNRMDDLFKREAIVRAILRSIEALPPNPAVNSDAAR

OXA-48 = biological target: T8, OXA-48 (Klebsiella pneumoniae, UniProt Q6XEC0); experiment: β-lactamase inhibitory activity, determination of IC50 (nitrocefin hydrolysis); format: biochemical; conditions: class (D); nitrocefin 200 μM, 30 min pre-incubation; read-out: IC50 β-lactamase OXA-48
T8 construct: made in house; host or cells: E. coli
T8 sequence (Q6XEC0 23-265 limits assumed): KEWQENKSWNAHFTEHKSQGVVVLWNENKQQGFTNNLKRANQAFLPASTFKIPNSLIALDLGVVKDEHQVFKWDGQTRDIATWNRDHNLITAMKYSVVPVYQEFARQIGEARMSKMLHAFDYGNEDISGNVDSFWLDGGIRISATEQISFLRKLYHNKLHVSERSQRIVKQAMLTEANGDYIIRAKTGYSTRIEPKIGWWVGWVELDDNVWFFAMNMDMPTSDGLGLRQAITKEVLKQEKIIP

E. cloacae P99 (AmpC) = experiment: MIC of compounds alone, broth microdilution; format: cell-based; conditions: Enterobacter cloacae; strain P99 (E. cloacae); read-out: MIC compounds of the invention alone
Method: (§1) Method 2: MIC of Compounds and Synergy with Ceftazidime Against Bacterial Isolates (Table 2 and 3)
(§2) Compounds of the present invention were assessed against genotyped bacterial strains alone or in combination with the β-lactam ceftazidime (CAZ). In the assays, MICs of said compounds, or of ceftazidime at fixed concentrations of said compounds were determined by the broth microdilution method according to the Clinical Laboratory Standards Institute (CLSI-M7-A7). Briefly, compounds alone according to the invention were prepared in DMSO and spotted (2 μL each) on sterile polystyrene plates (Corning, 3788). Compounds and ceftazidime dilutions were prepared in DMSO and spotted (1 μL each) on sterile polystyrene plates (Corning, 3788). Log phase bacterial suspensions were adjusted to a final density of 5×10^5 cfu/mL in cation-adjusted Mueller-Hinton broth (Becton-Dickinson) and added to each well (98 μL). Microplates were incubated for 16-20 h at 35° C. in ambient air. The MIC of the compounds was defined as the lowest concentration of said compounds that prevented bacterial growth as read by visual inspection. The MIC of ceftazidime at each compound concentration was defined as the lowest concentration of ceftazidime that prevented bacterial growth as read by visual inspection.

[1] = test system: E. coli 131119 (TEM-1, OXA-48); experiment: MIC of compounds alone, broth microdilution; format: cell-based; conditions: Escherichia coli; strain 131119 (E. coli); read-out: MIC compounds of the invention alone
Method: as §1, §2

E. coli RGN238 (OXA-1) = experiment: MIC of compounds alone, broth microdilution; format: cell-based; conditions: Escherichia coli; strain RGN238 (E. coli); read-out: MIC compounds of the invention alone
Method: as §1, §2

[2] = test system: K. pneumoniae 6299 (TEM-1, SHV-11, OXA-163); experiment: MIC of compounds alone, broth microdilution; format: cell-based; conditions: Klebsiella pneumoniae; strain 6299 (K. pneumoniae); read-out: MIC compounds of the invention alone
Method: as §1, §2

[3] = test system: K. pneumoniae BAA-1898 (TEM-1, SHV-11, SHV-12, KPC-2); experiment: MIC of compounds alone, broth microdilution; format: cell-based; conditions: Klebsiella pneumoniae, BAA1898; strain BAA-1898 (K. pneumoniae); read-out: MIC compounds of the invention alone
Method: as §1, §2

[4] = test system: P. aeruginosa CIP107051 (TEM-24); experiment: MIC of compounds alone, broth microdilution; format: cell-based; conditions: Pseudomonas aeruginosa; strain CIP107051 (P. aeruginosa); read-out: MIC compounds of the invention alone
Method: as §1, §2

AmpC (P99) = AmpC (P99) (Enterobacter cloacae, UniProt P05364); experiment: β-lactamase inhibitory activity, determination of IC50 (nitrocefin hydrolysis)
AmpC (P99), sequence (P05364 21-381): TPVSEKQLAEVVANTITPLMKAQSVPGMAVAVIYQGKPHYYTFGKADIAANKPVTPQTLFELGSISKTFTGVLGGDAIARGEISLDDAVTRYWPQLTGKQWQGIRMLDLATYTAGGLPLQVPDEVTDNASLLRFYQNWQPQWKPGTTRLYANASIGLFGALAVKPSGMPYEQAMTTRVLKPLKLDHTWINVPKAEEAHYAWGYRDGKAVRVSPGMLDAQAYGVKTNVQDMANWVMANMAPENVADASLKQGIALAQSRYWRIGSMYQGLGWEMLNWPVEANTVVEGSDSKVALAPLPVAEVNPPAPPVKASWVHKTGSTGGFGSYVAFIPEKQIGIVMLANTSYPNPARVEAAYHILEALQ

AmpC P. aeruginosa = AmpC P. aeruginosa (Pseudomonas aeruginosa, UniProt P24735); experiment: as above
AmpC P. aeruginosa, sequence (P24735 27-397): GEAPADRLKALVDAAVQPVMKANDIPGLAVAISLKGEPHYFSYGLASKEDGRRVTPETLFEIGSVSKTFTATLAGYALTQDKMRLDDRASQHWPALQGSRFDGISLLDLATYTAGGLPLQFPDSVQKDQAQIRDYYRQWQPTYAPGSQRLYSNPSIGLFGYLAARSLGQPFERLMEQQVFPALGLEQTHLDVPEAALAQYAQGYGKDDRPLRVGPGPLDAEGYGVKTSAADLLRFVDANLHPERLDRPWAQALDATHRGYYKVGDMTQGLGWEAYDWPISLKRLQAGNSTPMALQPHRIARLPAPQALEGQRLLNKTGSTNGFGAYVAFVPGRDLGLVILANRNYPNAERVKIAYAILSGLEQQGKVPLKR

T1 sequence (P62593 24-286 limits assumed): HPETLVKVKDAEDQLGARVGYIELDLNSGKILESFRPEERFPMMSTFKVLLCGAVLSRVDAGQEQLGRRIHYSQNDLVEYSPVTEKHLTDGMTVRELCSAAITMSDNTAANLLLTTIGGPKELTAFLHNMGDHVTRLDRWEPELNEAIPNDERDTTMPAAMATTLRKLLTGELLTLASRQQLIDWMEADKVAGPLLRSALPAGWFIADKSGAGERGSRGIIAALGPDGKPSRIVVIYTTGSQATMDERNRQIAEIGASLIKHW
T2 sequence (P0AD64 22-286): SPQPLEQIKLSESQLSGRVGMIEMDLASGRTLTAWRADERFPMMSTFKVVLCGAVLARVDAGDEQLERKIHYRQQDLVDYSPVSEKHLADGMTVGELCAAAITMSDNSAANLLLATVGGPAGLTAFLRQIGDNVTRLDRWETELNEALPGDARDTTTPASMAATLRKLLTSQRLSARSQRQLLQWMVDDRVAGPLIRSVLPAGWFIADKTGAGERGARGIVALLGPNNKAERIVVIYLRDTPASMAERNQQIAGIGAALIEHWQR

Compound	IC50 (TEM-1) [nM]	IC50 (SHV-1) [nM]	IC50 (CTX-M-15) [nM]	IC50 (KPC-2) [nM]	IC50 (OXA-1) [nM]	IC50 (OXA-11) [nM]	IC50 (OXA-15) [nM]	IC50 (OXA-48) [nM]	MIC (E. cloacae P99 (AmpC)) [µg/mL]	MIC [1] [µg/mL]	MIC (E. coli RGN238 (OXA-1)) [µg/mL]	MIC [2] [µg/mL]	MIC [3] [µg/mL]	MIC [4] [µg/mL]	IC50 (AmpC (P99)) [nM]	IC50 (AmpC P. aeruginosa) [nM]
O=C1N2CC=C(c3cccnc3)C(C2)N1OS(=O)(=O)[O-].[Na+] (stereo not drawn) [Example 9, Sodium [4-(3-pyridyl)-7-oxo-1,6-diazabicyclo[3.2.1]oct-3-en-6-yl]sulfate]	3.8	11	4.8	68	130	730	52	1.4	> 32	16	> 32	> 32	> 32	> 32	770	810
Cn1ccc(C2=CCN3CC2N(OS(=O)(=O)[O-])C3=O)cc1=O.[Na+] (stereo not drawn) [Example 13, Sodium [4-(1-methyl-2-oxo-4-pyridyl)-7-oxo-1,6-diazabicyclo[3.2.1]oct-3-en-6-yl] sulfate]	6.1	8.8	6	63	820	730	230	2.3	16	8	> 32	> 32	> 32	> 32	2800	3200
Cn1cc(C2=CCN3CC2N(OS(=O)(=O)[O-])C3=O)ncc1=O.[Na+] (stereo not drawn) [Example 14, Sodium [4-(4-methyl-5-oxo-pyrazin-2-yl)-7-oxo-1,6-diazabicyclo[3.2.1]oct-3-en-6-yl] sulfate]	1.6	2.9	2.7	52	730	920	33	1.4	8	8	> 32	> 32	> 32	> 32	890	1900
O=C1N2CC(c3cnoc3)=CC(C2)N1OS(=O)(=O)[O-].[Na+] (stereo not drawn) [Example 26, sodium [3-(isoxazol-4-yl)-7-oxo-1,6-diazabicyclo[3.2.1]oct-3-en-6-yl] sulfate]	4.8	13	5.7	4.2	370	140	210	6.6	8	2	4	8	8	> 32	51	74
O=C1N2CC=C(c3ccns3)C(C2)N1OS(=O)(=O)[O-].[Na+] (stereo not drawn) [Example 30, Sodium [4-(isothiazol-5-yl)-7-oxo-1,6-diazabicyclo[3.2.1]oct-3-en-6-yl] sulfate]	5.2	15	1.8	63	150	720	23	2.5	8	4	> 32	> 32	> 32	> 32	200	780
O=C1N2CC(n3ccnc3)=CC(C2)N1OS(=O)(=O)[O-].[Na+] (stereo not drawn) [Example 34, Sodium [3-imidazol-1-yl-7-oxo-1,6-diazabicyclo[3.2.1]oct-3-en-6-yl]sulfate]	7.2	21	2.7	24	410	650	220	220	8	8	16	32	16	> 32	59	500

— US10183943B2, “Heterocyclic compounds and their use in preventing or treating bacterial infections” (MUTABILIS, priority 2015, dated 2019)
